# Reference: PubChem BioAssay AID624001 (Vanderbilt Specialized Chemistry Center, 2012)
# Molecular target: Phospholipase D1 (Homo sapiens) + Phospholipase D1 (Homo sapiens) (UniProt Q13393+Q13393)
# Assay: phospholipase D1 inhibition, isolated enzyme – biochemical, Lib32, assay 3A, dose response (AID 624001)
# Conditions: purified PLD1 enzyme activity assay
# Chain of Phospholipase D1 (Homo sapiens) + Phospholipase D1 (Homo sapiens) (Q13393 whole entry, looked up): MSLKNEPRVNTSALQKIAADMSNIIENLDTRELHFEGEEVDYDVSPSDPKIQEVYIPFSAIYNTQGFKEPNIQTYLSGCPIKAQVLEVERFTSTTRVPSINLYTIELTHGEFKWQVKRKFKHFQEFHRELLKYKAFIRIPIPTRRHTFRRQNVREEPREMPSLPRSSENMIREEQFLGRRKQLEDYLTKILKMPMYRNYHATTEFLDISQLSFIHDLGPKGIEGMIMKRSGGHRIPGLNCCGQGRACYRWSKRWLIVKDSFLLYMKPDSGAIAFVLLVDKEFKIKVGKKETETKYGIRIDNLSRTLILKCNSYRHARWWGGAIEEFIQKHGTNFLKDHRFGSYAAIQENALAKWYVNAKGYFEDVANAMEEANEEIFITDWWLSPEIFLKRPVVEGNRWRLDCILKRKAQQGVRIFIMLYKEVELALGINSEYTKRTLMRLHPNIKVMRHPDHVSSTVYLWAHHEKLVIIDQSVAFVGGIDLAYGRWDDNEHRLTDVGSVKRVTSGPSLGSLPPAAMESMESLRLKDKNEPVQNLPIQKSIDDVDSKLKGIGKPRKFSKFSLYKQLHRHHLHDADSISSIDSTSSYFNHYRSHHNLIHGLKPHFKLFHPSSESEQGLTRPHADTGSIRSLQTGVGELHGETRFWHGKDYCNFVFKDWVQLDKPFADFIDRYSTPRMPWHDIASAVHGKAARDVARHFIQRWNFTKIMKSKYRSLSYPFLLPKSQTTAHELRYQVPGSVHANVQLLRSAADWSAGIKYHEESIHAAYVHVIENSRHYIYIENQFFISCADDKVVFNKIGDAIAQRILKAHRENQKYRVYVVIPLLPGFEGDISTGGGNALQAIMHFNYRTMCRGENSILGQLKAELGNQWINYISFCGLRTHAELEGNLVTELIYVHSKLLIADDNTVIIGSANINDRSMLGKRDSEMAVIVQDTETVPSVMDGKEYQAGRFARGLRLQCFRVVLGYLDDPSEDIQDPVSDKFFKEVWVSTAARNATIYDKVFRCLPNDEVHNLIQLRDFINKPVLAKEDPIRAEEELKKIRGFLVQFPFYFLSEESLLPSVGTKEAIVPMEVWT
# Chain of Phospholipase D1 (Homo sapiens) + Phospholipase D1 (Homo sapiens) (Q13393 whole entry, looked up): as above
structure (smiles),measurement,value
COc1cc(C(=O)NCCN2CCC3(CC2)C(=O)NCN3c2cccc(F)c2)cc(OC)c1OC,IC50,20 µM
